How the values were obtained:
[1] = test system: Human adenoid cystic carcinoma TGS112T cells; experiment: [3H]-thymidine incorporation; assay type: cell-based; conditions: 10^−7 M, 24 h
Experimental: TGS112T cells were seeded in 24-well trays and exposed to 10% hormone-depleted FBS-supplemented medium for 2 d, then treated with 0.25% hormone-depleted FBS-supplemented medium prior to starting the experiments. Aliquots of cells were treated with T4, tetrac or nano-tetrac as indicated, as well as 1 μCi [^3H]-thymidine (final concentration, 13 nM) for 24 h. Cells were then washed twice with cold PBS. TCA (5%, 1 mL) was added and the plate was held at 4° C. for 30 min. The precipitate was washed twice with cold ethanol; 2% SDS (1 mL) was added to each well and the TCA-precipitable radioactivity was quantitated in a liquid scintillation counter.
(§1) Human adenoid cystic carcinoma TGS112T cells were cultured in medium that contained 0.25% hormone-stripped serum for 2 d and then treated with 10^−7 M tetrac or nano-tetrac for 30 min prior institution of 10^−7 M T4 treatment for 24 h. Nuclear proteins were separated by SDS-PAGE followed by western blot analysis with proliferating-cell nuclear antigen (PCNA) antibody. Thyroid hormone-induced PCNA accumulation was inhibited by tetrac. (See FIG. 6A). […] (See FIG. 6A). Inhibition of thyroid hormone-induced proliferation was confirmed by inhibition by tetrac and nano-tetrac of thyroid hormone-induced accumulation and [^3H]-thymidine incorporation. (See FIG. 6B). […] (See FIG. 6B). […] The effect of nano-tetrac and tetrac on cell proliferation was examined by counting TGS112T cells which were treated daily with 10^−6 M tetrac or 10^−6 M nano-tetrac. […] (See FIG. 6C).

[2] = test system: Human adenoid cystic carcinoma TGS112T cells; experiment: PCNA western blot (thyroid hormone-induced proliferation); assay type: cell-based; conditions: 10^−7 M, 24 h
Source text: The techniques have been described in a number of publications. (See Davis et al., 2006. Cancer Res. 66:7270-7275; Lin et al., 2007. Steroids. 72:180-187; Lin et al., 2008. Carcinogenesis. 29:62-69; and Davis et al., 2004. Circ Res. 94:1500-1506, each of which is herein incorporated by reference in its entirety). Nucleoproteins were separated on discontinuous SDS-PAGE (9% gels) and the proteins transferred by electroblotting to nitrocellulose membranes (Millipore, Bedford, Mass.). After blocking with 5% milk in Tris-buffered saline containing 0.1% Tween, the membranes were incubated with selected primary antibodies overnight. The secondary antibodies were either goat anti-rabbit IgG (1:1000, Dako, Carpenteria, Calif.) or rabbit anti-mouse IgG (1:1000, Dako), depending upon the origin of the primary antibody. Immunoreactive proteins were then detected by chemiluminescence.
as §1

`N[C@@H](Cc1cc(I)c(Oc2cc(I)c(O)c(I)c2)c(I)c1)C(=O)O` [T4, L-thyroxine, reference compound] was tested, and the “effect of agent alone on thymidine incorporation” value [1] was “increased thymidine incorporation” and the “Proliferation of TGS112T cells (agent alone)” value [2] was “stimulated”.

— US9180107B2 (NANOPHARMACEUTICALS LLC, priority 2009, dated 2015)
